# According to PubChem BioAssay AID2060600 (Molecular Pharmacology Branch, DTP, NCI, 2025):
# Values joined by “and” are separate entries in the source; they are usually repeats but may differ in a detail not shown here. Equal values may be shown once.
# System: 996289-038-R-J1-PDC complex spheroid viability
# Test: Anticancer human tumor 996289-038-R-J1-PDC patient-derived colon adenocarcinoma cell line growth inhibition [CLK]
# Conditions: for viability, T/C: stronger effect = lower value
# Procedure, shortened: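 Patient-derived tumor cells grown as complex spheroids with HUVEC endothelial cells and mesenchymal stem cells, treated with drug combinations. Concentrations descend in half-log steps from near clinical Cmax, or from 10 microM if Cmax unknown.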
# [1] = curve of first compound, second compound 0.0316 µM
# [2] = curve of first compound, second compound 0.1 µM
# [3] = curve of first compound, second compound 0.316 µM
# [4] = curve of first compound, second compound 1 µM
# [5] = curve of first compound, second compound 3.16 µM
# [6] = curve of first compound, second compound 10 µM
# [7] = second compound 0.0316 µM, first compound 0.0316 µM
# [8] = second compound 0.0316 µM, first compound 0.1 µM
# [9] = second compound 0.0316 µM, first compound 0.316 µM
# [10] = second compound 0.0316 µM, first compound 1 µM
# [11] = second compound 0.0316 µM, first compound 3.16 µM
# [12] = second compound 0.0316 µM, first compound 10 µM
# [13] = second compound 0.1 µM, first compound 0.0316 µM
# [14] = second compound 0.1 µM, first compound 0.1 µM
# [15] = second compound 0.1 µM, first compound 0.316 µM
# [16] = second compound 0.1 µM, first compound 1 µM
# [17] = second compound 0.1 µM, first compound 3.16 µM
# [18] = second compound 0.1 µM, first compound 10 µM
# [19] = second compound 0.316 µM, first compound 0.0316 µM
# [20] = second compound 0.316 µM, first compound 0.1 µM
# [21] = second compound 0.316 µM, first compound 0.316 µM
# [22] = second compound 0.316 µM, first compound 1 µM
# [23] = second compound 0.316 µM, first compound 3.16 µM
# [24] = second compound 0.316 µM, first compound 10 µM
# [25] = second compound 1 µM, first compound 0.0316 µM
# [26] = second compound 1 µM, first compound 0.1 µM
# [27] = second compound 1 µM, first compound 0.316 µM
# [28] = second compound 1 µM, first compound 1 µM
# [29] = second compound 1 µM, first compound 3.16 µM
# [30] = second compound 1 µM, first compound 10 µM
# [31] = second compound 3.16 µM, first compound 0.0316 µM
# [32] = second compound 3.16 µM, first compound 0.1 µM
# [33] = second compound 3.16 µM, first compound 0.316 µM
# [34] = second compound 3.16 µM, first compound 1 µM
# [35] = second compound 3.16 µM, first compound 3.16 µM
# [36] = second compound 3.16 µM, first compound 10 µM
# [37] = second compound 10 µM, first compound 0.0316 µM
# [38] = second compound 10 µM, first compound 0.1 µM
# [39] = second compound 10 µM, first compound 0.316 µM
# [40] = second compound 10 µM, first compound 1 µM
# [41] = second compound 10 µM, first compound 3.16 µM
# [42] = second compound 10 µM, first compound 10 µM
# 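Further: spheroids exposed to the agents for 7 days before readout.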
smiles,measurement,setting,value
COc1cccc2c1C(=O)c1c(O)c3c(c(O)c1C2=O)CC(O)(C(=O)CO)CC3OC1CC(N)C(O)C(C)O1 (stereo unspecified) + CN1CCN(c2cc(C(=O)Nc3cc4cc(-c5cnn(C)c5)ccc4cn3)ccn2)CC1,IC50,[1],1400 nM
same,IC50,[2],775 nM
same,IC50,[3],218 nM
same,IC50,[4],< 31.6 nM
same,IC50,[5],< 31.6 nM
same,IC50,[6],< 31.6 nM
same,"viability, T/C",[7],89.6%
same,"viability, T/C",[8],91.8%
same,"viability, T/C",[9],71.9%
same,"viability, T/C",[10],52.5%
same,"viability, T/C",[11],45.2%
same,"viability, T/C",[12],33.8%
same,"viability, T/C",[13],89.3%
same,"viability, T/C",[14],83.5%
same,"viability, T/C",[15],60.2%
same,"viability, T/C",[16],44.5%
same,"viability, T/C",[17],40.6%
same,"viability, T/C",[18],26.3%
same,"viability, T/C",[19],67.8%
same,"viability, T/C",[20],56.9%
same,"viability, T/C",[21],42.1%
same,"viability, T/C",[22],38.6%
same,"viability, T/C",[23],33.6%
same,"viability, T/C",[24],16.1%
same,"viability, T/C",[25],4.05%
same,"viability, T/C",[26],4.33%
same,"viability, T/C",[27],4.01%
same,"viability, T/C",[28],3.89%
same,"viability, T/C",[29],4.94%
same,"viability, T/C",[30],7.17%
same,"viability, T/C",[31],0.81%
same,"viability, T/C",[32],1.53%
same,"viability, T/C",[33],2.41%
same,"viability, T/C",[34],2.9%
same,"viability, T/C",[35],5.23%
same,"viability, T/C",[36],5.47%
same,"viability, T/C",[37],1.39%
same,"viability, T/C",[38],0.35%
same,"viability, T/C",[39],0.5%
same,"viability, T/C",[40],0.45%
same,"viability, T/C",[41],0.53%
same,"viability, T/C",[42],0.61%
C=C(F)C(=O)N1CCN(c2nc(OCC3CCCN3C)nc3c2CCN(c2cccc4cccc(Cl)c24)C3)CC1CC#N (stereo unspecified),"viability, T/C",compound 0.0316 µM,100% and 113%
same,"viability, T/C",compound 0.1 µM,91.7% and 107%
same,"viability, T/C",compound 0.316 µM,100% and 101%
same,"viability, T/C",compound 1 µM,108% and 101%
same,"viability, T/C",compound 3.16 µM,78.5% and 76%
same,"viability, T/C",compound 10 µM,1.09% and 1.7%
same,IC50,curve of compound,4830 nM and 4710 nM
Nc1ccn(C2OC(CO)C(O)C2(F)F)c(=O)n1 (stereo unspecified) + CNC(=O)c1ccc(Nc2nc(OC3CCCC3)c3c(-c4ccc5nc(C)oc5c4)c[nH]c3n2)c(OC)c1,IC50,[1],> 10000 nM
same,IC50,[2],> 10000 nM
same,IC50,[3],> 10000 nM
same,IC50,[4],1230 nM
same,IC50,[5],674 nM
same,IC50,[6],639 nM
same,"viability, T/C",[7],93.1%
same,"viability, T/C",[8],82.7%
same,"viability, T/C",[9],67.1%
same,"viability, T/C",[10],70%
same,"viability, T/C",[11],65.1%
same,"viability, T/C",[12],56.4%
same,"viability, T/C",[13],108%
same,"viability, T/C",[14],85.3%
same,"viability, T/C",[15],67.9%
same,"viability, T/C",[16],68%
same,"viability, T/C",[17],66.7%
same,"viability, T/C",[18],54.9%
same,"viability, T/C",[19],79.8%
same,"viability, T/C",[20],70.5%
same,"viability, T/C",[21],65.4%
same,"viability, T/C",[22],56.1%
same,"viability, T/C",[23],55.3%
same,"viability, T/C",[24],52.2%
same,"viability, T/C",[25],68.8%
same,"viability, T/C",[26],63.4%
same,"viability, T/C",[27],54.6%
same,"viability, T/C",[28],50%
same,"viability, T/C",[29],48.9%
same,"viability, T/C",[30],41.4%
same,"viability, T/C",[31],65.3%
same,"viability, T/C",[32],54.2%
same,"viability, T/C",[33],52.6%
same,"viability, T/C",[34],49.3%
same,"viability, T/C",[35],47.2%
same,"viability, T/C",[36],36.9%
same,"viability, T/C",[37],61.5%
same,"viability, T/C",[38],57.6%
same,"viability, T/C",[39],48.4%
same,"viability, T/C",[40],49.4%
same,"viability, T/C",[41],46.9%
same,"viability, T/C",[42],35.2%
